The target of assay [1] is T1, importin-α (Mus musculus, UniProt P52293). Description: X-ray crystal structure of Tat:NLS/CPP importin-α complex (PDB 5SVZ).
Assay [2] deals with T1, importin-α. Briefly: Binding of importin-α to immobilised GST-Tat:NLS/CPP on glutathione column, SDS-PAGE. To be noted: GST-Tat:NLS/CPP fusion immobilised on glutathione column, importin-α passed over. More on the design: 6-His; made in house; The pET30 vector and Studier autoinduction imply E. coli (own inference).
Where [3] appears, read: overall binding, 2.0 Å structure.

Entries after “also recorded” stand apart in the source; their conditions may differ.

Turning to “GRKKRRQRRRAPQN [Tat:NLS/CPP, entire cell penetrating region of HIV-1 Tat, residues 48–61, recombinantly expressed as a GST-fusion, tag cleaved by TEV for crystallisation]”, the “binding site on importin-α” value in assay [1] (2.0 Å structure) is given as “binds to the major binding site of importin-α within ARM domains 2–4; also recorded: no NLS residues in the minor binding site”. In addition, the hydrogen bond distance in assay [1] (Tat Arg49 O – importin-α Asn235 ND2, PDBSum) was determined as 2.77 Å; in assay [1] (Tat Arg52 NH1 – importin-α Arg106 O, PDBSum) it was 2.81 Å; in assay [1] (Tat Arg52 NH1 – importin-α Leu104 O, PDBSum), 2.84 Å; in assay [1] (Tat Arg52 NH2 – importin-α Arg106 O, PDBSum) it was 3.02 Å; in assay [1] (Tat Arg52 NH2 – importin-α Glu107 O, PDBSum), 3.20 Å; in assay [1] (Tat Arg53 N – importin-α Asn146 OD1, PDBSum), 2.89 Å. For the same sequence, the hydrogen bond distance in assay [1] (Tat Arg53 NH1 – importin-α Gln181 OE1, PDBSum) was determined as 2.49 Å; in assay [1] (Tat Arg53 O – importin-α Asn146 ND2, PDBSum), 2.66 Å; in assay [1] (Tat Arg53 O – importin-α Trp142 NE1, PDBSum), 3.24 Å; in assay [1] (Tat Lys50 NZ – importin-α Gly150 O, PDBSum), 2.91 Å; in assay [1] (Tat Lys50 NZ – importin-α Thr155 OG1, PDBSum), 2.80 Å; in assay [1] (Tat Lys51 N – importin-α Asn188 OD1, PDBSum), 2.81 Å. For the same sequence, the hydrogen bond distance in assay [1] (Tat Lys51 O – importin-α Asn188 ND2, PDBSum) was determined as 2.79 Å; in assay [1] (Tat Lys51 O – importin-α Trp184 NE1, PDBSum), 3.02 Å. Besides, the salt bridge distance in assay [1] (Tat Lys50 NZ – importin-α Asp192 OD1, salt bridge interaction, PDBSum) is reported as 2.89 Å. This sequence also came in with a buried surface area in assay [1] (setting [3]) of 717 Å^2. In assay [1] (setting [3]), the “number of salt bridge interactions” value came to 1 salt bridge. Moreover, the “binding to importin-α (column retention / complex formation)” value in assay [2] was “strong and direct interaction”.

For the origin of these results see paper PMC5431807, “Structural Basis for Importin-α Binding of the Human Immunodeficiency Virus Tat” (Scientific Reports, 2017).
